Source: PMC5429621 (Scientific Reports, 2017)
Numbering of substitutions follows the chain as printed.

Columns and labels:
[1] = target: T1, hP2X7-2Nβ/P2X1 chimera 81–94 (Homo sapiens, UniProt Q99572, F88W/H85P/I21V/K81P/K82G/M24R/N16P/N25R/Q22R/R20V/S23N/S86Q/T19I/T90V/T94V/V84G/Y26L); assay: two-electrode voltage clamp, Xenopus oocytes; assay type: cell-based; settings: 81–94 chimera
T1 construct: expressed in transfected cells; host or cells: Xenopus laevis oocytes (cRNA injected)
T1 sequence (Q99572 1-595 N16P/T19I/R20V/I21V/Q22R/S23N/M24R/N25R/Y26L/K81P/K82G/V84G/H85P/S86Q/F88W/T90V/T94V): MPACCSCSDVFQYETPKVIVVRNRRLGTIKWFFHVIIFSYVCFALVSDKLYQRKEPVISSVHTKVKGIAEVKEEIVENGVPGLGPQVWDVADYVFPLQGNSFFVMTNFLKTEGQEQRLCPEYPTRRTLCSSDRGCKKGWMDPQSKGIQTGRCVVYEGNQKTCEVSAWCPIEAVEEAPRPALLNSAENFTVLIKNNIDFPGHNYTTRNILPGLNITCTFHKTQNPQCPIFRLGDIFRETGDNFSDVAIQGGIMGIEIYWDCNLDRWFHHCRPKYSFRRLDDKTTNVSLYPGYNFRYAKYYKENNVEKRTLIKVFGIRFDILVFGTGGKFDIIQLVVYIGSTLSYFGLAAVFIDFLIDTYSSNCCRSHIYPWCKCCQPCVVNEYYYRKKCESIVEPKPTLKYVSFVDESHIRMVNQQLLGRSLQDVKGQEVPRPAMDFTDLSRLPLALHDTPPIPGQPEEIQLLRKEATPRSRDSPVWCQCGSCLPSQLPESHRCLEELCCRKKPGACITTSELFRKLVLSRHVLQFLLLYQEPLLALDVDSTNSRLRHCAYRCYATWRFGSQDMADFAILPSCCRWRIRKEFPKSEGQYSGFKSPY
Text: The hP2X1R was a gift from Dr Lin-Hua Jiang (University of Leeds, UK) and the hP2X1R cDNA has been described previously. Chimeras were generated by megaprimer-mediated domain swapping. In addition to chimeras, point mutations, deletions and insertions were made using the QuikChange (Stratagene) or Q5 (New England Bioscience) mutagenesis kits. The production of the correct mutations and absence of coding errors was verified by DNA sequencing (Automated ABI Sequencing Service, University of Leicester, UK).
(§1) P2XR constructs were transcribed to produce sense-strand cRNA (mMessage mMachine, Ambion, Austin, TX). Manually defoliculated stage V Xenopus laevis oocytes were injected with 50 nl (50 ng) of cRNA using an Inject + Matic microinjector (J.A. Gaby, InjectMatic, Geneva, Switzerland) and stored at 16 °C in ND96 buffer (in mM, NaCl 96, KCl 2, CaCl2 1.8, MgCl2 1, sodium pyruvate 5, HEPES 5 (pH 7.6) supplemented with 50 µg/ml gentamycin and 50 µg/ml tetracycline). For electrophysiological recordings (3–7 days post-injection) oocytes were bathed in divalent free ND96 buffer (in mM, NaCl 96, KCl 2, sodium pyruvate 5, HEPES 5 and 0.1 flufenamic acid, pH 7.6).
(§2) ATP (sodium salt, Sigma) was applied via a U-tube perfusion system for 3 s at 3–5 minute intervals to allow reproducible responses to be recorded. […] To standardize for any change in ATP sensitivity at mutant receptors antagonists were co-applied with an EC90 concentration of ATP.
(§3) Concentration response curves were normalized to the maximal response and fitted with the Hill equation (variable slope) with GraphPad Prism 6 (Graphpad software, San Diego, CA). […] Individual concentration response curves were generated for individual experiments and statistical analysis was carried out on the data generated. In the figures the inhibition curves are fitted to the mean normalized data. Any significant differences were calculated by one-way analysis of variance, followed by Bonferroni’s test (using GraphPad Prism 6). Data are shown as mean ± SEM.

[2] = target: T2, hP2X7-2Nβ receptor (Homo sapiens, UniProt Q99572, I21V/M24R/N16P/N25R/Q22R/R20V/S23N/T19I/Y26L); assay: two-electrode voltage clamp, Xenopus oocytes; assay type: cell-based; settings: P2X7-2Nβ
T2 construct: expressed in transfected cells; host or cells: Xenopus laevis oocytes (cRNA injected)
T2 sequence (Q99572 1-595 N16P/T19I/R20V/I21V/Q22R/S23N/M24R/N25R/Y26L): T1 sequence (Q99572 1-595 N16P/T19I/R20V/I21V/Q22R/S23N/M24R/N25R/Y26L/K81P/K82G/V84G/H85P/S86Q/F88W/T90V/T94V) with P81K, G82K, G84V, P85H, Q86S, W88F, V90T, V94T
Description: as §1, §2, §3

SMILES	Peak amplitude ([1]; maximal ATP) [μA]	Peak amplitude ([2]; maximal ATP) [μA]	peak current to ATP, % of the control response ([1]; in the presence of 3 µM AZ10606120) [%]	Hill slope of AZ10606120 inhibition ([2]; EC90 ATP)	% Inhibition with 30 nm AZ10606120 ([2]; response to EC90 ATP)
Nc1ncnc2c1ncn2[C@@H]1O[C@H](COP(=O)(O)OP(=O)(O)OP(=O)(O)O)[C@@H](O)[C@H]1O [ATP]	0.76 ± 0.13	2.69 ± 0.19			
Cl.Cl.O=C(CC12CC3CC(CC(C3)C1)C2)Nc1cccc2nc(NCCNCCO)ccc12 [AZ10606120, N-[2-[[2-[(2-Hydroxyethyl)amino]ethyl]amino]-5-quinolinyl]-2-tricyclo[3.3.1.13,7]dec-1-ylacetamide dihydrochloride]			53.6 ± 2.6	1.7 ± 0.24	~ 70%
